Experimental data: PubChem BioAssay (NCI)
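Results reflect a 48-hour exposure of cells in 96-well plates to compound at five concentrations. TGI is the concentration that stops growth completely.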

Assays:
Experiment in all cases: NCI-60 cell line screen, 48 h
[1] = test system: CCRF-CEM leukemia
[2] = test system: DLD-1 colon
[3] = test system: DMS 273 small cell lung
[4] = test system: HCC-2998 colon
[5] = test system: HOP-18 NSCLC
[6] = test system: K-562 leukemia
[7] = test system: M19-MEL melanoma
[8] = test system: NCI-H226 lung
[9] = test system: OVCAR-3 ovarian
[10] = test system: RXF 393 renal
[11] = test system: SF-539 CNS
[12] = test system: SK-MEL-5 melanoma
[13] = test system: SNB-78 CNS
[14] = test system: XF 498 CNS
[15] = test system: LXFL 529 NSCLC
[16] = test system: TK-10 renal
[17] = test system: BT-549 breast
[18] = test system: DU-145 prostate
[19] = test system: HS 578T breast
[20] = test system: T-47D breast

With NC(=S)N/N=C/c1ccc(OC(=O)COc2ccccc2Cl)cn1 the TGI [1] was over 65.8 µM, the TGI [2] was over 100 µM and the TGI [3] was over 71.6 µM. For the same molecule, the TGI [4] was over 87.4 µM, the TGI [5] was over 100 µM and the TGI [6] was over 100 µM. It also gave a TGI [7] of over 92.2 µM, a TGI [8] of 73.9 µM and a TGI [9] of 99.1 µM. The TGI [10] was over 100 µM, the TGI [11] was 52.2 µM and the TGI [12] was over 100 µM. It also gave a TGI [13] of over 100 µM and a TGI [14] of over 92 µM.

With Cc1nc(N(CCO)CCO)c2sc(=S)n(-c3ccccc3)c2n1 the TGI [1] was over 100 µM, the TGI [2] was over 100 µM and the TGI [4] was over 100 µM. It also gave a TGI [5] of over 100 µM, a TGI [6] of over 100 µM and a TGI [15] of over 100 µM. For the same molecule, the TGI [8] was over 100 µM, the TGI [9] was over 100 µM and the TGI [11] was over 100 µM. The TGI [12] was over 100 µM and the TGI [16] was over 100 µM.

COc1cc(Cc2ccc3c(c2C#N)N(C)c2ccccc2S3)cc(OC)c1OC showed a TGI [1] of over 100 µM, a TGI [2] of over 100 µM and a TGI [3] of over 100 µM. It also gave a TGI [5] of over 100 µM, a TGI [6] of over 100 µM and a TGI [15] of over 100 µM. The TGI [7] was over 100 µM, the TGI [8] was over 100 µM and the TGI [9] was over 100 µM. For the same molecule, the TGI [10] was over 100 µM, the TGI [11] was 42.7 µM and the TGI [13] was over 100 µM. For the same molecule, the TGI [16] was over 100 µM and the TGI [14] was over 100 µM.

CCOC(=O)C(=O)Nc1cccc(C)c1C was tested, and the TGI [1] was over 100 µM, the TGI [2] was over 100 µM and the TGI [3] was over 100 µM. For the same molecule, the TGI [4] was over 100 µM, the TGI [5] was over 100 µM and the TGI [6] was over 100 µM. It also gave a TGI [15] of over 100 µM, a TGI [7] of over 100 µM and a TGI [8] of over 100 µM. The TGI [9] was over 100 µM, the TGI [11] was over 100 µM and the TGI [12] was over 100 µM. The TGI [13] was over 100 µM, the TGI [16] was over 100 µM and the TGI [14] was over 100 µM.

BrC1=CN2C[n+]3cc(Br)c4ccccc4c3N=C2c2ccccc21 was tested, and the TGI [17] was 37.2 µM, the TGI [1] was 34.4 µM and the TGI [18] was 33.3 µM. It also gave a TGI [19] of 61 µM, a TGI [6] of 39.5 µM and a TGI [9] of 8.86 µM. For the same molecule, the TGI [11] was 25.7 µM, the TGI [12] was 12.8 µM and the TGI [20] was 18.8 µM. It also gave a TGI [16] of 55 µM.

For COC(=O)C1=C(O)C(C(=O)OC)[C@@]2(O)[C@@H](C(=O)OC)CC[C@@H]1[C@@H]2C(=O)OC (some centres undefined), the TGI [17] was over 100 µM, the TGI [1] was over 100 µM and the TGI [18] was over 100 µM. The TGI [4] was 32.2 µM, the TGI [19] was 33.9 µM and the TGI [6] was over 100 µM. It also gave a TGI [8] of 70.9 µM, a TGI [9] of 58.8 µM and a TGI [10] of 61.2 µM. The TGI [11] was 46.1 µM, the TGI [20] was over 100 µM and the TGI [16] was 93.4 µM.

CCOC(=O)/C(=N/Nc1ccc(Cl)cc1)N1C(=S)C=C(C)NN(C)C1=S showed a TGI [1] of over 100 µM, a TGI [18] of over 100 µM and a TGI [4] of over 100 µM. It also gave a TGI [19] of over 100 µM, a TGI [6] of over 100 µM and a TGI [9] of over 100 µM. It also gave a TGI [10] of 41.1 µM, a TGI [11] of over 100 µM and a TGI [12] of over 100 µM. For the same molecule, the TGI [20] was 98.3 µM and the TGI [16] was over 100 µM.

With COc1cc(C2S/C(=C/c3ccccc3)C(=O)N2c2ccccc2Cl)cc(OC)c1OC (centres undefined) the TGI [17] was over 100 µM, the TGI [4] was over 100 µM and the TGI [19] was 47.5 µM. For the same molecule, the TGI [8] was over 100 µM, the TGI [10] was 45.1 µM and the TGI [12] was 75.1 µM. The TGI [20] was 32.1 µM and the TGI [16] was over 100 µM.

Work on C/C([O-])=C(/c1nc(-c2ccc([N+](=O)[O-])o2)no1)[n+]1cc(C)ccc1C yielded a TGI [1] of over 100 µM, a TGI [2] of 24.7 µM and a TGI [3] of 26.1 µM. The TGI [4] was 25.8 µM, the TGI [5] was 21.8 µM and the TGI [6] was over 51.9 µM. For the same molecule, the TGI [7] was 17.6 µM, the TGI [8] was 31.6 µM and the TGI [9] was 37.7 µM. The TGI [10] was 43.2 µM, the TGI [11] was 27.6 µM and the TGI [12] was 23.4 µM. The TGI [13] was over 100 µM and the TGI [14] was 21.1 µM.
